From PMC9821843, “Powerful Potential of Polyfluoroalkyl-Containing 4-Arylhydrazinylidenepyrazol-3-ones for Pharmaceuticals” (Molecules, 2022)
Converted amounts (≈) assume the structure as drawn. “And” between values parts separate entries of the source, which are not always exact repeats. Equal values may be shown once. Read-outs that look alike come from different tables or passages of the source.

Experiments:
[1] = molecular target: T1, human erythrocyte acetylcholinesterase (AChE, EC 3.1.1.7) (Homo sapiens, UniProt P22303); assay: Inhibition of human erythrocyte acetylcholinesterase (Ellman assay); format: biochemical; details: read-out: Inhibition % at 20 µM, Human AChE
T1 construct: human erythrocyte acetylcholinesterase (AChE, EC 3.1.1.7); purchased Sigma-Aldrich (Saint Louis, MO, USA); host or cells: human erythrocytes
T1 sequence (P22303 32-617 isoform P22303-2 limits assumed): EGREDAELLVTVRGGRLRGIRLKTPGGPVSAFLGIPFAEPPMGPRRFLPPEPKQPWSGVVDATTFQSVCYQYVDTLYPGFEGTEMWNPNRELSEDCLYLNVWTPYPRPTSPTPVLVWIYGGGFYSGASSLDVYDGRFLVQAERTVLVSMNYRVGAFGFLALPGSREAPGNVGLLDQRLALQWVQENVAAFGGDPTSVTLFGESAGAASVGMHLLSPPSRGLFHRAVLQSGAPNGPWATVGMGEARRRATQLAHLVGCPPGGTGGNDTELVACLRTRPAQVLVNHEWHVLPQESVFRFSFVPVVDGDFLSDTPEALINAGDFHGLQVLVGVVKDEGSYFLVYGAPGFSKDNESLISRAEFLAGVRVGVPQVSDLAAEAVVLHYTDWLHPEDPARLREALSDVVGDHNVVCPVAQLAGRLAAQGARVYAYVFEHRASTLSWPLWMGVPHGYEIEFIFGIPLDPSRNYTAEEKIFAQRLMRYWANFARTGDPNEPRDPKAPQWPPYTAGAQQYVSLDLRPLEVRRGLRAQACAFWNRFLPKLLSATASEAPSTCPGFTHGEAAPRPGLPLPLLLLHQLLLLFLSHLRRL
Method in brief: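 Colorimetric Ellman read-out with acetylthiocholine iodide substrate and DTNB, under standard reversible-inhibitor conditions, 2% (v/v) final DMSO. Enzyme-free blanks corrected for non-enzymatic hydrolysis; triplicate runs, IC50 from regression plots.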

[2] = ABTS radical cation scavenging activity assay; design: key to ABTS•+-scavenging activity, TEAC (trolox equivalent antioxidant capacity): TEAC = ratio of compound slope to Trolox slope vs ABTS absorbance; details: mean ± SEM; for ABTS•+-scavenging activity, TEAC (trolox equivalent antioxidant capacity): n.a. = inactive
Method in brief: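 ABTS•+ (from 7 mM ABTS plus 2.45 mM persulfate) mixed with compound, 5 × 10^–7–4 × 10^–4 M, 1 h at 30 °C; absorbance decrease read at 734 nm. TEAC from slope ratio versus Trolox; IC50 as 50% radical reduction for compounds exceeding 60% reduction at 100 µM.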

[3] = Acute toxicity evaluation in mice (ip); details: CD-1, mouse, in vivo, 300 mg/kg
Experimental: The toxicity evaluation was performed on CD-1 mice. […] The tested compounds in 1% starch mucilage were injected intraperitoneally into three mice. Then, animals were observed during 14 days, the number of deaths was counted and % of viability calculated.

Sprague-Dawley (SD) rats = assay: Hot plate test (analgesic activity); format: in vivo; details: ip; for change in vivo at 15 mg/kg: Rattus norvegicus
Method in brief: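 Test compounds were given i.p. as suspensions in 1% starch mucilage to SD rats (3 male, 3 female per group), vehicle as negative control. At 1 and 2 h post-dose, latency to nociceptive response (jumping, hind paw licking/shaking) on a 50 °C plate was recorded, 30 s cutoff.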

[4] = test system: Neisseria gonorrhoeae ATCC 49226/NCTC 12700; assay: Antibacterial activity against Neisseria gonorrhoeae; format: cell-based; details: read-out: MIC against Neisseria gonorrhoeae
[5] = hot plate test, rats, dose 15 mg/kg, 1 h, n.a. = inactive (p > 0.05), read-out: Latent Period Prolongation, % 1 h
[6] = hot plate test, rats, dose 15 mg/kg, 2 h, n.a. = inactive (p > 0.05), read-out: Latent Period Prolongation, % 2 h
[7] = 1 h, read-out: Latent Period Prolongation, % 1 h
[8] = 2 h, read-out: Latent Period Prolongation, % 2 h

O=C1NN=C(C(F)(F)F)/C1=N/Nc1ccccc1 [5a, (Z)-4-(2-Phenylhydrazinylidene)-5-(trifluoromethyl)-2,4-dihydro-3H-pyrazol-3-one]
inhibition at 20 µM [1]: 12.8 ± 2.3% | IC50 [2]: 42.8 ± 2.3 µM | ABTS•+-scavenging activity, TEAC (trolox equivalent antioxidant capacity) [2]: 0.50 ± 0.03 | survival at 14 days [3]: 100% | change in vivo at 15 mg/kg (Sprague-Dawley (SD) rats; [5]): 40%

Cc1ccc(N/N=C2\C(=O)NN=C2C(F)(F)F)cc1 [5b, (4Z)-4-[2-(4-Methylphenyl)hydrazinylidene]-5-(trifluoromethyl)-2,4-dihydro-3H-pyrazol-3-one]
IC50 [2]: 46.2 ± 2.4 µM | ABTS•+-scavenging activity, TEAC (trolox equivalent antioxidant capacity) [2]: 0.42 ± 0.03 | MIC [4]: 62.5 µg/mL (≈ 231 µM) | survival at 14 days [3]: 100% | change in vivo at 15 mg/kg (Sprague-Dawley (SD) rats; [5]): 69.5% | change in vivo at 15 mg/kg (Sprague-Dawley (SD) rats; [6]): 59.7%

O=C1NN=C(C(F)(F)F)/C1=N/Nc1ccc(Br)cc1 [5c, (4Z)-4-[2-(4-Bromophenyl)hydrazinylidene]-5-(trifluoromethyl)-2,4-dihydro-3H-pyrazol-3-one]
inhibition at 20 µM [1]: 3.4 ± 0.6% | IC50 [2]: 41.5 ± 2.4 µM | ABTS•+-scavenging activity, TEAC (trolox equivalent antioxidant capacity) [2]: 0.40 ± 0.02 | MIC [4]: 125 µg/mL (≈ 373 µM) | survival at 14 days [3]: 100% | change in vivo at 15 mg/kg (Sprague-Dawley (SD) rats; [6]): 51%

Cc1ccc(N/N=C2\C(=O)N(C)N=C2C(F)(F)F)cc1 [5d, (4Z)-2-Methyl-4-[2-(4-methylphenyl)hydrazinylidene]-5-(trifluoromethyl)-2,4-dihydro-3H-pyrazol-3-one]
inhibition at 20 µM [1]: 4.5 ± 1.1% | IC50 [2]: 161 ± 3.2 µM | ABTS•+-scavenging activity, TEAC (trolox equivalent antioxidant capacity) [2]: 0.15 ± 0.01 | MIC [4]: 15.6 µg/mL (≈ 54.9 µM) | survival at 14 days [3]: 100% | analgesic activity in the hot plate test (Sprague-Dawley (SD) rats; SD rats, dose 15 mg/kg, 1 and 2 h): inactive

Cc1ccc(N/N=C2\C(=O)N(c3ccccc3)N=C2C(F)(F)F)cc1 [5f, (4Z)-4-[2-(4-Methylphenyl)hydrazinylidene]-2-phenyl-5-(trifluoromethyl)-2,4-dihydro-3H-pyrazol-3-one]
ABTS•+-scavenging activity, TEAC (trolox equivalent antioxidant capacity) [2]: 0.1 ± 0.006 | MIC [4]: 62.5 µg/mL (≈ 180 µM) | survival at 14 days [3]: 100% | change in vivo at 15 mg/kg (Sprague-Dawley (SD) rats; [5]): 63% | change in vivo at 15 mg/kg (Sprague-Dawley (SD) rats; [6]): 68%

CS(=O)(=O)c1ccc(N/N=C2\C(=O)N(c3ccccc3)N=C2C(F)(F)F)cc1 [5m, (4Z)-4-(2-[4-(Methylsulfonyl)phenyl]hydrazinylidene)-2-phenyl-5-(trifluoromethyl)-2,4-dihydro-3H-pyrazol-3-one]
inhibition at 20 µM [1]: 5.5 ± 0.5% | MIC [4]: 125 µg/mL (≈ 305 µM) | survival at 14 days [3]: 100% | change in vivo at 15 mg/kg (Sprague-Dawley (SD) rats; [5]): 116% | change in vivo at 15 mg/kg (Sprague-Dawley (SD) rats; [6]): 144%

Cc1ccc(N/N=C2\C(=O)N(c3ccc(S(N)(=O)=O)cc3)N=C2C(F)(F)F)cc1 [5p, (4Z)-2-[4-(Aminosulfonyl)phenyl]-4-[2-(4-methylphenyl)hydrazinylidene]-5-(trifluoromethyl)-2,4-dihydro-3H-pyrazol-3-one]
ABTS•+-scavenging activity, TEAC (trolox equivalent antioxidant capacity) [2]: 0.03 ± 0.002 | MIC [4]: 62.5 µg/mL (≈ 147 µM) | survival at 14 days [3]: 100% | change in vivo at 15 mg/kg (Sprague-Dawley (SD) rats; [5]): 62.1% | change in vivo at 15 mg/kg (Sprague-Dawley (SD) rats; [6]): 70.9%

Cc1ccc(N/N=C2\C(=O)NN=C2C(F)(F)C(F)(F)F)cc1 [6a, (4Z)-4-[2-(4-Methylphenyl)hydrazinylidene]-5-(pentafluoroethyl)-2,4-dihydro-3H-pyrazol-3-one]
IC50 [2]: 46.8 ± 2.1 µM | ABTS•+-scavenging activity, TEAC (trolox equivalent antioxidant capacity) [2]: 0.45 ± 0.03 | MIC [4]: 62.5 µg/mL (≈ 195 µM) | survival at 14 days [3]: 100% | change in vivo at 15 mg/kg (Sprague-Dawley (SD) rats; [5]): 83.9% | change in vivo at 15 mg/kg (Sprague-Dawley (SD) rats; [6]): 63.3%

Cc1ccc(N/N=C2\C(=O)N(c3ccccc3)N=C2C(F)(F)C(F)(F)F)cc1 [6b, (4Z)-4-[2-(4-Methylphenyl)hydrazinylidene]-5-(pentafluoroethyl)-2-phenyl-2,4-dihydro-3H-pyrazol-3-one]
inhibition at 20 µM [1]: 8.3 ± 1.4% | ABTS•+-scavenging activity, TEAC (trolox equivalent antioxidant capacity) [2]: 0.04 ± 0.002 | MIC [4]: 0.9 µg/mL (≈ 2.27 µM) | survival at 14 days [3]: 100% | change in vivo at 15 mg/kg (Sprague-Dawley (SD) rats; [5]): 158% | change in vivo at 15 mg/kg (Sprague-Dawley (SD) rats; [6]): 74.3%

Cc1ccc(N/N=C2\C(=O)NN=C2C(F)(F)C(F)(F)C(F)(F)F)cc1 [7a, (4Z)-5-(Heptafluoropropyl)-4-[2-(4-methylphenyl)hydrazinylidene]-2,4-dihydro-3H-pyrazol-3-one]
inhibition at 20 µM [1]: 35.6 ± 0.8% | IC50 [2]: 41.5 ± 1.8 µM | ABTS•+-scavenging activity, TEAC (trolox equivalent antioxidant capacity) [2]: 0.54 ± 0.03 | MIC [4]: > 250 µg/mL | survival at 14 days [3]: 100% | change in vivo at 15 mg/kg (Sprague-Dawley (SD) rats; [7]): 42% | change in vivo at 15 mg/kg (Sprague-Dawley (SD) rats; [8]): 52%

Cc1ccc(N/N=C2\C(=O)N(c3ccccc3)N=C2C(F)(F)C(F)(F)C(F)(F)F)cc1 [7b, (4Z)-5-(Heptafluoropropyl)-4-[2-(4-methylphenyl)hydrazinylidene]-2-phenyl-2,4-dihydro-3H-pyrazol-3-one]
inhibition at 20 µM [1]: 12.6 ± 1.8% | ABTS•+-scavenging activity, TEAC (trolox equivalent antioxidant capacity) [2]: 0.03 ± 0.002 | MIC [4]: 31.2 µg/mL (≈ 69.9 µM) | survival at 14 days [3]: 100% | change in vivo at 15 mg/kg (Sprague-Dawley (SD) rats; [7]): 144% | change in vivo at 15 mg/kg (Sprague-Dawley (SD) rats; [8]): 82.3%

CC1=NNC(=O)/C1=N\Nc1ccc(C)cc1 [9a, (4Z)-5-Methyl-4-[2-(4-methylphenyl)hydrazinylidene]-2,4-dihydro-3H-pyrazol-3-one]
IC50 [2]: 25.4 ± 1.1 µM | ABTS•+-scavenging activity, TEAC (trolox equivalent antioxidant capacity) [2]: 0.86 and 0.86 ± 0.04 | MIC [4]: > 250 µg/mL | survival at 14 days [3]: 100% | change in vivo at 15 mg/kg (Sprague-Dawley (SD) rats; [5]): 80.8%

CC1=NN(c2ccccc2)C(=O)/C1=N\Nc1ccc(C)cc1 [9b, (4Z)-5-Methyl-4-[2-(4-methylphenyl)hydrazinylidene]-2-phenyl-2,4-dihydro-3H-pyrazol-3-one]
IC50 [2]: 28.3 ± 1.2 µM | ABTS•+-scavenging activity, TEAC (trolox equivalent antioxidant capacity) [2]: 0.8 and 0.80 ± 0.05 | MIC [4]: > 250 µg/mL | survival at 14 days [3]: 100% | change in vivo at 15 mg/kg (Sprague-Dawley (SD) rats; [6]): 140%
